Where two headings read alike, the source gives them in different places.
Experiments:
[1] = tested on: Chlamydia trachomatis (Ctr); settings: 10 μM or 100 μM U0126 added 2 h after infection; lysed 48 h p.i.; FIG. 3D
Method: (§1) Western blotting analysis (30 hours post-infection) of (A) uninfected and Ctr-infected cells with and without U0126, (B) uninfected and Ctr-infected cells transfected with siRNAs targeting luciferase or MEK1 and 2, and (C) uninfected and Ctr-infected cells transfected with siRNAs targeting luciferase, K-Ras, or Raf-1. β-actin was used as a loading control. (D) Uninfected and Ctr-infected cells treated with or without UO126 were lysed at 48 hours post-infection and these samples were used to infect freshly seeded cells. These cells were fixed 24 hours post-infection and the infectivity was quantified. Data shown are the mean±SD of three experiments normalized to mock-treated, infected cells. (E) Uninfected and Ctr-infected cells, untransfected of transfected with siRNAs specific for luciferase, K-Ras, or Raf-1 were lysed 48 hours post-infection and these samples were then used to infect freshly seeded cells. These cells were fixed 24 hours post-infection and the infectivity of the bacteria was quantified. […] Western blots depicted in (A) to (C) are representative of three experiments.

ERK = settings: 30 hours post-infection; FIG. 3A
Method: as §1

cPLA2 [2] = settings: 30 hours post-infection; FIG. 3A
Method: as §1

Ctr = settings: Su et al., 2004; cited from earlier work
cPLA2 [3] = settings: Su et al., 2004; cited from earlier work
Chlamydia = experiment: effect of chemical inhibitors of GMPS on Chlamydia infection; format: cell-based; settings: for Chlamydia replication: chemical inhibitor of GMPS added to infected cells
Method: The effect of chemical inhibitors of GMPS on Chlamydia infection was tested.

C. trachomatis L2 = experiment: genome-wide siRNA-based screen in human epithelial cells, formation of Chlamydia infectious progeny; format: cell-based; settings: Table 1b, primary screen, genes of nucleotide metabolism
Source text: We performed a genome-wide siRNA-based screen in human epithelial cells to identify host cell factors that are essential for Chlamydia infection using the Qiagen Hu_Genome Set V1.0 and the Human Druggable Genome siRNA Set V2.0. C. trachomatis L2 was used.

GMPS = GMPS (Escherichia coli, UniProt P04079); settings: Chittur et al., 2001, cited from earlier work
Chain of GMPS (P04079 whole entry): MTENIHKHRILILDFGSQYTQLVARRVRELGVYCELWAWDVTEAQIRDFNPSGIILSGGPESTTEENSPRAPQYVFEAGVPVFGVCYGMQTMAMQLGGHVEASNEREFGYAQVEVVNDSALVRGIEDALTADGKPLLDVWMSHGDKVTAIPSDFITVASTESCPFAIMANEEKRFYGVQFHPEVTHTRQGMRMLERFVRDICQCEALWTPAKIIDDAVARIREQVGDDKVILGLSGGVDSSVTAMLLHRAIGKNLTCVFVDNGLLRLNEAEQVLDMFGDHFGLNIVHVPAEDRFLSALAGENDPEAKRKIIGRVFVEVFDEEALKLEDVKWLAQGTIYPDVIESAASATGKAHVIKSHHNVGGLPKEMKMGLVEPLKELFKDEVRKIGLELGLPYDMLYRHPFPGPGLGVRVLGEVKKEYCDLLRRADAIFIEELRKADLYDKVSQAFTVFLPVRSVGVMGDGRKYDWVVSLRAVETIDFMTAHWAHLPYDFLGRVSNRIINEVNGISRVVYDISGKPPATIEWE

PPAT, GMPS, CAD, CTPS = settings: de novo pathway of purine and pyrimidine synthesis; cited from earlier work
[4] = tested on: cellular UTP, CTP, GMP, ATP, ITP; settings: Neil et al., 1979; cited from earlier work
Leishmania donovani = settings: vector and host form; cited from earlier work
P. falciparum = settings: in vitro; cited from earlier work
bloodstream T. brucei [5] = settings: bloodstream T. brucei in culture; cited from earlier work
bloodstream T. brucei [6] = settings: mouse model; cited from earlier work

Q: What does the source list for `N#CC(=C(/N)Sc1ccccc1N)/C(C#N)=C(\N)Sc1ccccc1N` [U0126]?
A: infectivity of Ctr [1]: decreased; phosphorylation of ERK in response to infection (ERK): repressed; phosphorylation of cPLA2 in response to infection (cPLA2 [2]): repressed; infectivity of Ctr (Ctr): decreases; extent of phosphorylation of cPLA2 (cPLA2 [3]): reduces

Q: With `C=C1O[C@@](CO)(n2cnc3c(N)ncnc32)[C@H](O)[C@@H]1O` [Decoyinine] as the molecule, how does the Chlamydia replication (Chlamydia) read?
A: Its Chlamydia replication is “no inhibitory effect”.

Q: For “Hs_NPR2_8: siRNA, target gene NPR2 (sense CAGCTCAGCCCTGTACATATA; chemistry not given here; the letters are possibly those of the target site)”, which “Infectivity phenotype upon Knockdown” value (C. trachomatis L2) is on record?
A: Its value is “down”.

Q: With “Hs_ENPP1_2: siRNA, target gene ENPP1 (sense TGGGCAAACAGTAGACTTATA; chemistry not given here; the letters are possibly those of the target site)” as the molecule, how does the “Infectivity phenotype upon Knockdown” value (C. trachomatis L2) read?
A: The value was “down”.

Q: Which “Infectivity phenotype upon Knockdown” value (C. trachomatis L2) does the source give for “Hs_GMPR2_11: siRNA, target gene GMPR2 (sense TCCCAAGGCACCAGTACTCTA; chemistry not given here; the letters are possibly those of the target site)” here?
A: Its value is “down”.

Q: Which “Infectivity phenotype upon Knockdown” value (C. trachomatis L2) does the source give for “AACATTGTACCCTATACTATA: siRNA, target gene PAPSS2; no product name printed (chemistry not given here; the letters are possibly those of the target site)” here?
A: The value was “down”.

Q: Which “Infectivity phenotype upon Knockdown” value (C. trachomatis L2) does the source give for “Hs_GUK1_6: siRNA, target gene GUK1 (sense CCCGGCGAGGAGAACGGCAAA; chemistry not given here)” here?
A: The value was “down”.

Q: With “Hs_ITPA_2: siRNA, target gene ITPA (sense CTGGAGAAGTTAAAGCCTGAA; chemistry not given here; the letters are possibly those of the target site)” as the molecule, how does the “Infectivity phenotype upon Knockdown” value (C. trachomatis L2) read?
A: The value was “down”.

Q: Which “Infectivity phenotype upon Knockdown” value (C. trachomatis L2) does the source give for “Hs_IMPDH1_6: siRNA, target gene IMPDH1 (sense CAGCAGCAGCCAGAAACGATA; chemistry not given here; the letters are possibly those of the target site)” here?
A: The value was “down”.

Q: Which “Infectivity phenotype upon Knockdown” value (C. trachomatis L2) does the source give for “Hs_ENPP3_1: siRNA, target gene ENPP3 (sense CTGGCTGTTAGGAGTAAATCA; chemistry not given here; the letters are possibly those of the target site)” here?
A: The value was “down”.

Q: With “Hs_ADCY8_8: siRNA, target gene ADCY8 (sense CAGGCCGCCTTTGAGTCTTTA; chemistry not given here; the letters are possibly those of the target site)” as the molecule, how does the “Infectivity phenotype upon Knockdown” value (C. trachomatis L2) read?
A: Its value is “down”.

Q: For “Hs_NME2_6: siRNA, target gene NME2 (sense TGGGCTGGTGAAGTACATGAA; chemistry not given here; the letters are possibly those of the target site)”, which “Infectivity phenotype upon Knockdown” value (C. trachomatis L2) is on record?
A: The value was “down”.

Q: With “Hs_ENPP6_1: siRNA, target gene ENPP6 (sense TTGGATAATTCTATACATAAA; chemistry not given here; the letters are possibly those of the target site)” as the molecule, how does the “Infectivity phenotype upon Knockdown” value (C. trachomatis L2) read?
A: The value was “down”.

Q: Which “Infectivity phenotype upon Knockdown” value (C. trachomatis L2) does the source give for “Hs_PDE6B_2: siRNA, target gene PDE6B (sense CACGCTGCTCATGACCGGCAA; chemistry not given here; the letters are possibly those of the target site)” here?
A: The value was “down”.

Q: With “Hs_PDE4D 3: siRNA, target gene PDE4D (sense TACCCACTAATGGACAATCAA; chemistry not given here)” as the molecule, how does the “Infectivity phenotype upon Knockdown” value (C. trachomatis L2) read?
A: The value was “down”.

Q: For “Hs_NME2P1_2: siRNA, target gene NME2P1 (sense CAGGTTGGCAGGAACATCATT; chemistry not given here; the letters are possibly those of the target site)”, which “Infectivity phenotype upon Knockdown” value (C. trachomatis L2) is on record?
A: The value was “down”.

Q: Which “Infectivity phenotype upon Knockdown” value (C. trachomatis L2) does the source give for “Hs_GMPS_2: siRNA, target gene GMPS (sense AAGAATTTCCTTTATGATATA; chemistry not given here; the letters are possibly those of the target site)” here?
A: The value was “down”.

Q: Which “Infectivity phenotype upon Knockdown” value (C. trachomatis L2) does the source give for “Hs_PDE4D_4: siRNA, target gene PDE4D (sense CAGGTAGTTAAGTTAGGGTTA; chemistry not given here; the letters are possibly those of the target site)” here?
A: Its value is “down”.

Q: Which “Infectivity phenotype upon Knockdown” value (C. trachomatis L2) does the source give for “Hs_NME2P1_4: siRNA, target gene NME2P1 (sense CCTGGTGGGCAAGATCATCAA; chemistry not given here; the letters are possibly those of the target site)” here?
A: The value was “down”.

Q: Which “Infectivity phenotype upon Knockdown” value (C. trachomatis L2) does the source give for “Hs_PAPSS2_1: siRNA, target gene PAPSS2 (sense ATGGAAGGTCCTGACAGATTA; chemistry not given here; the letters are possibly those of the target site)” here?
A: The value was “down”.

Q: For “Hs_ADCY9_3: siRNA, target gene ADCY9 (sense CTGGGCATGAGGAGGTTTAAA; chemistry not given here; the letters are possibly those of the target site)”, which “Infectivity phenotype upon Knockdown” value (C. trachomatis L2) is on record?
A: Its value is “down”.

Q: For “Hs_ENTPD4_1: siRNA, target gene ENTPD4 (sense CAGCAGGAAGAAGTAGCTAAA; chemistry not given here; the letters are possibly those of the target site)”, which “Infectivity phenotype upon Knockdown” value (C. trachomatis L2) is on record?
A: Its value is “down”.

Q: Which “Infectivity phenotype upon Knockdown” value (C. trachomatis L2) does the source give for “Hs_NME1_5: siRNA, target gene NME1 (sense TTCCGCCTTGTTGGTCTGAAA; chemistry not given here; the letters are possibly those of the target site)” here?
A: Its value is “down”.

Q: For “Hs_GMPR2_12: siRNA, target gene GMPR2 (sense TTGGACCTTCACATATCTAAA; chemistry not given here; the letters are possibly those of the target site)”, which “Infectivity phenotype upon Knockdown” value (C. trachomatis L2) is on record?
A: The value was “down”.

Q: Which “Infectivity phenotype upon Knockdown” value (C. trachomatis L2) does the source give for “Hs_ENTPD4_2: siRNA, target gene ENTPD4 (sense CAGCAGAAAGCTATTCTGGAA; chemistry not given here; the letters are possibly those of the target site)” here?
A: Its value is “down”.

Q: With “Hs_PDE1A_2: siRNA, target gene PDE1A (sense ACAGAGTGCTATAACTATAAA; chemistry not given here; the letters are possibly those of the target site)” as the molecule, how does the “Infectivity phenotype upon Knockdown” value (C. trachomatis L2) read?
A: Its value is “down”.

Q: With “Hs_PDE4A_4: siRNA, target gene PDE4A (sense ATGGGAAGTCGTGTCATCCTA; chemistry not given here; the letters are possibly those of the target site)” as the molecule, how does the “Infectivity phenotype upon Knockdown” value (C. trachomatis L2) read?
A: The value was “down”.

Q: For `N[C@H](C(=O)O)[C@@H]1CC(Cl)=NO1` [acivicin, L-[αS,5S]-α-amino-3-chloro-4,5-dihydro-5-isoxazoleacetic acid], which “Chlamydia replication after addition of the nucleotides GTP and GMP” value (Chlamydia; cells to which acivicin was added) is on record?
A: The value was “recover Chlamydia replication”.

Q: What about the Chlamydia replication (Chlamydia) of the same molecule?
A: The Chlamydia replication was “complete block”.

Q: What about the “inhibition of GMPS (γ-glutamine amidotransferase activity)” value (GMPS) of the same molecule?
A: The value was “inhibit”.

Q: What about the “inhibition of GMPS (γ-glutamine amidotransferase activity)” value (GMPS; listed as Acivicin) of the same molecule?
A: Its value is “irreversibly inhibits”.

Q: And the “inhibition of PPAT, GMPS, CAD and CTPS” value (PPAT, GMPS, CAD, CTPS)?
A: Its value is “inhibits”.

Q: And the cellular nucleotide concentrations [4]?
A: The cellular nucleotide concentrations was “decrease of cellular UTP, CTP, and GMP concentrations, with no alteration in ATP or ITP pools”.

Q: And the “killing of Leishmania donovani” value (Leishmania donovani)?
A: Its value is “kills both the vector and the host form”.

Q: What about the “growth of P. falciparum” value (P. falciparum) of the same molecule?
A: Its value is “inhibit the growth”.

Q: What about the antitrypanosomal activity (bloodstream T. brucei [5]) of the same molecule?
A: Its antitrypanosomal activity is “antitrypanosomal activity”.

Q: What about the antitrypanosomal activity (bloodstream T. brucei [6]) of the same molecule?
A: The antitrypanosomal activity was “antitrypanosomal activity”.

From patent US20130116302A1, “PHARMACEUTICAL COMPOSITION FOR THE TREATMENT OF CHLAMYDIAL INFECTION” (Max-Planck-Gesellschaft zur Foerderung der Wissenschaften …, priority 2010, published 2013)
